This is an account of results in patent publication US5164390A, “6-substituted purinyl piperazine derivatives” (Ortho Pharmaceutical Corporation, priority 1991, dated 1992).

The assay has as its system Adult mongrel dogs. As to the kind of experiment: Cardiotonic activity: hemodynamic and inotropic responses (MAP, HR, dP/dt, contractile force) in anesthetized dogs, iv infusion. It is filed as in vivo, mongrel dog. Particulars: Canis lupus familiaris, Table 2, 1.875 mpk iv. How it is done: Adult mongrel dogs were anesthetized with sodium pentobarbital (45 mg/kg, i.p.) and artificially respired. Mean arterial pressure (MAP) was recorded from a cannulated femoral artery and drugs were infused into a cannulated femoral vein. The arterial pressure pulse was used to trigger a cardiotachometer for determination of heart rate (HR). Left ventricular pressure was measured with a Millar catheter and dP/dtmax was derived. A right thoracotomy was performed and myocardial contractile force (CF) was measured with a Walton Brodie strain gauge sutured to the right ventricle. The ventricular muscle was stretched to produce a baseline tension of 100 g. A standard dose of dopamine (10-15 ug/kg/min for 3 min) was administered to determine myocardial responsiveness to inotropic stimulation.
Test compounds were solubilized in a small volume of DMF diluted to a final concentration of 10% in physiological saline. Alternatively, where possible, a soluble hydrochloride salt was prepared by addition of 0.1N HCl diluted in physiological saline. Vehicles were tested in appropriate volumes and found to exert less than a 5% effect on contractile force. For iv studies, compounds were administered by infusion pump (one drug per animal) at rates of 0.58-2.2 mL/min in three to four stepwise increasing doses. Each dose was infused over 5 min immediately after the effect of the previous dose peaked. MAP, HR, dP/dtmax and CF responses were continuously monitored on a Beckman or Gould recorder and expressed as a percent change from pre-drug control values vs. the cumulative dose of drug administered. For these studies, n represents the number of test animals used.
Quantitation of the inotropic potency was obtained by calculation of the contractile force (CF) ED50. This was defined as the dose of compound that produced a 50% increase above baseline in myocardial contractile force. The value was obtained from three to four point dose-response curves using either graphical estimation (n<3) or linear regression analysis (n≥3). Numbers in parentheses are number of animals screened.

The mark [1] stands for this setting: read-out: CF (myocardial contractile force), percent change from pre-drug control.
The mark [2] stands for this setting: read-out: HR (heart rate), percent change from pre-drug control.
The mark [3] stands for this setting: read-out: MAP (mean arterial pressure), percent change from pre-drug control.
The mark [4] stands for this setting: read-out: dP/dt (left ventricular dP/dtmax), percent change from pre-drug control.

Where two headings read alike, the source gives them in different places.

On to `Nc1nc(SCC(O)CN2CCN(C(c3ccc(F)cc3)c3ccc(F)cc3)CC2)c2nc[nH]c2n1` (stereo not drawn) [Example 25, 2-Amino-6-[1-[1-bis(4-fluorophenyl)methyl]piperazin-4-yl]-2-hydroxy-3-propanyl-thio]purine Hemihydrate], for which the change in vivo at 1.875 mg/kg is 84% under setting [1], 9% under setting [2], -15% under setting [3] and 23% under setting [4].

For the compound `COC(=O)CCn1cnc2c(SCC(CN3CCN(C(c4ccc(F)cc4)c4ccc(F)cc4)CC3)OC(C)=O)ncnc21` (stereo not drawn) [Example 26, 6-[1-[1-[Bis(4-fluorophenyl)methyl]piperazin-4-yl-]-2-acetoxy-3-propanylthio]purin-9-yl-3-propanoic acid, methyl ester], the change in vivo at 1.875 mg/kg by setting is: under setting [1], 34%; under setting [2], -3%; under setting [3], -10%; under setting [4], 29%.

On to `CCN(CC(O)CN1CCN(C(c2ccc(F)cc2)c2ccc(F)cc2)CC1)c1ncnc2nc[nH]c12` (stereo not drawn) [Example 27, 6-[3-[4-[Bis(4-fluorophenyl)methyl]piperazin-1-yl]-2-hydroxypropyl-N-ethylamino]purine], for which the change in vivo at 1.875 mg/kg runs as follows: under setting [1], 10%; under setting [2], 6%; under setting [3], 3%; under setting [4], 14%.

For the compound `CN(CC(O)CN1CCN(C(c2ccc(F)cc2)c2ccc(F)cc2)CC1)c1ncnc2[nH]cnc12` (stereo not drawn) [Example 28, 6-[3-[4-[Bis(4-fluorophenyl)methyl]piperazin-1-yl]-2-hydroxypropyl-N-methylamino]purine Hemihydrate], the change in vivo at 1.875 mg/kg under setting [1] was determined as 95%, the change in vivo at 1.875 mg/kg under setting [2] worked out at 16%, the change in vivo at 1.875 mg/kg under setting [3] came to 9% and the change in vivo at 1.875 mg/kg under setting [4] came to 82%.

Regarding `Cn1cnc2c(SCC(O)CN3CCN(C(c4ccc(F)cc4)c4ccc(F)cc4)CC3)ncnc21` (stereo not drawn) [Example 29, 9-Methyl-6-[1-[1-[bis(4-fluorophenyl)methyl]piperazin-4-yl]-2-hydroxy-3-propanylthio]purine Hemihydrate], the change in vivo at 1.875 mg/kg by setting is: under setting [1], 50%; under setting [2], -2%; under setting [3], -6%; under setting [4], 11%.

For `Cc1nc(SCC(O)CN2CCN(C(c3ccc(F)cc3)c3ccc(F)cc3)CC2)c2nc[nH]c2n1` (stereo not drawn) [Example 30, 2-Methyl-6-[1-[1-[bis(4-fluorophenyl)methyl]piperazin-4-yl]-2-hydroxy-3-propanylthio]purine 3/4Hydrate], the change in vivo at 1.875 mg/kg is, setting by setting: under setting [1], 23%; under setting [2], 1%; under setting [3], 1%; under setting [4], 17%.
